Data from article PMC5896380, “Selective imaging of cathepsin L in breast cancer by fluorescent activity-based probes” (Chemical Science, 2018).
Non-standard residues stand in square brackets, D forms with d. *: point of attachment. Phe(3,4-Cl2) = N[C@@H](Cc1ccc(Cl)c(Cl)c1)C(=O)O; Phe(F5) = N[C@@H](Cc1c(F)c(F)c(F)c(F)c1F)C(=O)O; Phe(3,4-F2) = N[C@@H](Cc1ccc(F)c(F)c1)C(=O)O; Phe(2-Cl) = N[C@@H](Cc1ccccc1Cl)C(=O)O; Phe(4-F) = N[C@@H](Cc1ccc(F)cc1)C(=O)O; Phe(2-F) = N[C@@H](Cc1ccccc1F)C(=O)O; ACC = NC(=O)Cc1cc(=O)oc2cc(N*)ccc12; Met(O) = CS(=O)CC[C@H](N)C(=O)O; Tic = O=C(O)[C@@H]1Cc2ccccc2CN1; dOrn = NCCC[C@@H](N)C(=O)O; Orn = NCCC[C@H](N)C(=O)O; Dab = NCC[C@H](N)C(=O)O

Legend:
Assay type in all cases: biochemical
[1] = molecular target: T1, cathepsin K (Homo sapiens, UniProt P43235); assay: Substrate selectivity screening, rate of hydrolysis, cathepsin K; conditions: Table S4; substrate 100µM, cathepsin 5nM; pH 5.5, 37 °C; average of at least three screenings
T1 construct: made in house
T1 sequence (P43235 115-329): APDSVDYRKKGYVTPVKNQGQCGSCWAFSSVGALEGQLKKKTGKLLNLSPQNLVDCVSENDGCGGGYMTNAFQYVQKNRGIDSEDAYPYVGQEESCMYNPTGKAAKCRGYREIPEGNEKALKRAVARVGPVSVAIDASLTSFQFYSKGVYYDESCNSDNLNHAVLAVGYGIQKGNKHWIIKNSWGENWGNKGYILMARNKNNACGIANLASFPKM
Method: (§1) All kinetic experiments were performed using fMax (Molecular Devices) and CLARIOStar (BMG LABTECH) spectrofluorimeters operating in kinetic mode using 96-well plates. ACC-labeled substrates were screened using 355 nm and 460 nm wavelengths (excitation and emission, respectively). […] The buffer was prepared at room temperature and the enzyme kinetic studies were performed at 37 °C.
(§2) All potentially selective cathepsin L substrates were tested for their selectivity against a panel of five different cathepsins, containing cathepsins L, V, S, K and […], at concentrations of 2 μM and 100 μM. To obtain reliable results the concentration of each cathepsin was 5 nM. Substrate hydrolysis was carried out for 10 min (for cathepsin L) and for up to 60 min (for other cathepsins). Hydrolysis rates (RFU s^–1) are presented as average values from at least three screenings.

[2] = molecular target: T2, cathepsin L (Homo sapiens, UniProt P07711); assay: Substrate selectivity screening, rate of hydrolysis, cathepsin L; conditions: Table S4; substrate 100µM, cathepsin 5nM; pH 5.5, 37 °C; average of at least three screenings
T2 construct: made in house
T2 sequence (P07711 114-333): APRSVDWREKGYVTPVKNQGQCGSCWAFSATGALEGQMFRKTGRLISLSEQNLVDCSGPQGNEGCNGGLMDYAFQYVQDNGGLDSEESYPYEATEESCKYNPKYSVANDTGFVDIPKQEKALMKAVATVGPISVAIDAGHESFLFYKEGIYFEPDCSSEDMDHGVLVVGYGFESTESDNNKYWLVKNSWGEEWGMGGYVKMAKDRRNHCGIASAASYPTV
Method: as §1, §2

[3] = molecular target: T3, cathepsin S (Homo sapiens, UniProt P25774); assay: Substrate selectivity screening, rate of hydrolysis, cathepsin S; conditions: Table S4; substrate 100µM, cathepsin 5nM; pH 5.5, 37 °C; average of at least three screenings
T3 construct: made in house
T3 sequence (P25774 115-331): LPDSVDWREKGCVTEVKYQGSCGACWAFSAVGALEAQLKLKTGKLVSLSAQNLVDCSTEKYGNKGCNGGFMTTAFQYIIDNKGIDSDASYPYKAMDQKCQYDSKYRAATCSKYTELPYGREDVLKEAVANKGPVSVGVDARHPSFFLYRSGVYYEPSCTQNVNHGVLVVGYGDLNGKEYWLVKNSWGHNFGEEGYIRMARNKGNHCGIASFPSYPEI
Method: as §1, §2

[4] = molecular target: T2, cathepsin L; assay: Kinetic parameters of ACC substrates with cathepsin L; conditions: pH 5.5, 37 °C, cathepsin L 0.1–0.5 nM, SD below 15%
Method: as §1
(§3) Classic substrate velocity plots were analyzed according to Michaelis–Menten kinetics and a detailed protocol for the determination of kinetic parameters for ACC-tagged substrates is found elsewhere.[56] […] Experiments were repeated at least three times and results are presented as an average. The SDs were below 15%.

[5] = molecular target: T4, cathepsin B (Homo sapiens, UniProt P07858); assay: Substrate selectivity screening, rate of hydrolysis, cathepsin B; conditions: Table S4; substrate 100µM, cathepsin 5nM; pH 5.5, 37 °C; average of at least three screenings
T4 construct: made in house
Method: as §1, §2

[6] = molecular target: T5, cathepsin V (Homo sapiens, UniProt O60911); assay: Substrate selectivity screening, rate of hydrolysis, cathepsin V; conditions: Table S4; substrate 100µM, cathepsin 5nM; pH 5.5, 37 °C; average of at least three screenings
T5 construct: made in house
T5 sequence (O60911 114-334): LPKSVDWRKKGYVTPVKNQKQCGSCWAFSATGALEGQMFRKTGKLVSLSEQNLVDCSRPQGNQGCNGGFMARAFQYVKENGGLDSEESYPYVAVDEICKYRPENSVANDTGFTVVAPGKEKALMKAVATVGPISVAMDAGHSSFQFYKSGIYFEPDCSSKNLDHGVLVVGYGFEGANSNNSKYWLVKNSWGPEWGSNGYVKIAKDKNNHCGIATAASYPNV
Method: as §1, §2

[7] = molecular target: T4, cathepsin B; assay: Kinetic parameters of ACC substrates with cathepsin B; conditions: Fig. 5B; pH 5.5, 37 °C; cathepsin B 4–15 nM; triplicate, SD below 15%
Method: as §1, §3

[8] = molecular target: T5, cathepsin V; assay: Kinetic parameters of ACC substrates with cathepsin V; conditions: Fig. 5B; pH 5.5, 37 °C; cathepsin V 10–20 nM; triplicate, SD below 15%
Method: as §1, §3

[9] = molecular target: T3, cathepsin S; assay: Kinetic parameters of ACC substrates with cathepsin S; conditions: Fig. 5B; pH 5.5, 37 °C; cathepsin S 5–20 nM; triplicate, SD below 15%
Method: as §1, §3

[10] = molecular target: T1, cathepsin K; assay: Kinetic parameters of ACC substrates with cathepsin K; conditions: Fig. 5B; pH 5.5, 37 °C; cathepsin K 5–20 nM; triplicate, SD below 15%
Method: as §1, §3

[11] = molecular target: T3, cathepsin S; assay: kobs/I of activity-based probes, cathepsin S; conditions: Fig. 6A; pseudo-first order, probe at least 5-fold excess over cathepsin, 100 μM ACC substrate; pH 5.5, 37 °C; triplicate, SD below 20%
Method: as §1
(§4) For the kinetic studies, five recombinant human cathepsins (B, L, V, K and S) were expressed and purified and active site titrated using an E64 inhibitor. The kobs/I parameter was measured under pseudo-first order kinetic conditions, as described.[40] The cathepsin of interest was mixed with various concentrations of probe (at least 5-fold excess over cathepsin) and 100 μM ACC-fluorescence substrate. The experiments were repeated at least three times, and the results are presented as an average. The SDs were below 20%.

[12] = molecular target: T5, cathepsin V; assay: kobs/I of activity-based probes, cathepsin V; conditions: Fig. 6A; pseudo-first order, probe at least 5-fold excess over cathepsin, 100 μM ACC substrate; pH 5.5, 37 °C; triplicate, SD below 20%
Method: as §1, §4

[13] = molecular target: T2, cathepsin L; assay: kobs/I of activity-based probes, cathepsin L; conditions: Fig. 6A; pseudo-first order, probe at least 5-fold excess over cathepsin, 100 μM ACC substrate; pH 5.5, 37 °C; triplicate, SD below 20%
Method: as §1, §4

[14] = molecular target: T4, cathepsin B; assay: kobs/I of activity-based probes, cathepsin B; conditions: Fig. 6A; pseudo-first order, probe at least 5-fold excess over cathepsin, 100 μM ACC substrate; pH 5.5, 37 °C; triplicate, SD below 20%
Method: as §1, §4

[15] = molecular target: T1, cathepsin K; assay: kobs/I of activity-based probes, cathepsin K; conditions: Fig. 6A; pseudo-first order, probe at least 5-fold excess over cathepsin, 100 μM ACC substrate; pH 5.5, 37 °C; triplicate, SD below 20%
Method: as §1, §4

Relative substrate activity (rate of hydrolysis), cathepsin K [1] [RFU/s] | Relative substrate activity (rate of hydrolysis), cathepsin L [2] [RFU/s] | Relative substrate activity (rate of hydrolysis), cathepsin S [3] [RFU/s] | Relative substrate activity (rate of hydrolysis), cathepsin B [5] [RFU/s] | Relative substrate activity (rate of hydrolysis), cathepsin V [6] [RFU/s] | Substance | other results
1.5 | 901 | 4.4 | 65.1 | 306 | Ac-H[dL][Phe(3,4-Cl2)]R-{ACC} (SMILES CC(=O)N[C@@H](Cc1c[nH]cn1)C(=O)N[C@H](CC(C)C)C(=O)N[C@@H](Cc1ccc(Cl)c(Cl)c1)C(=O)N[C@@H](CCCNC(=N)N)C(=O)Nc1ccc2c(CC(N)=O)cc(=O)oc2c1) | –
0.3 | 153 | 0.0 | 0.0 | 0.0 | Ac-H[dL][Phe(F5)][Orn]-{ACC} (SMILES CC(=O)N[C@@H](Cc1c[nH]cn1)C(=O)N[C@H](CC(C)C)C(=O)N[C@@H](Cc1c(F)c(F)c(F)c(F)c1F)C(=O)N[C@@H](CCCN)C(=O)Nc1ccc2c(CC(N)=O)cc(=O)oc2c1) | –
0.0 | 474 | 12.7 | 22.3 | 30.5 | Ac-H[dR][Phe(3,4-F2)]L-{ACC} (SMILES CC(=O)N[C@@H](Cc1c[nH]cn1)C(=O)N[C@H](CCCNC(=N)N)C(=O)N[C@@H](Cc1ccc(F)c(F)c1)C(=O)N[C@@H](CC(C)C)C(=O)Nc1ccc2c(CC(N)=O)cc(=O)oc2c1) | –
1.2 | 699 | 7.8 | 9.4 | 103 | Ac-Pip-DLeu-Phe(3,4-F2)-Arg-ACC | –
0.2 | 658 | 21.1 | 76.2 | 129 | Ac-[Met(O)][dR][Phe(2-F)]R-{ACC} (SMILES CC(=O)N[C@@H](CCS(C)=O)C(=O)N[C@H](CCCNC(=N)N)C(=O)N[C@@H](Cc1ccccc1F)C(=O)N[C@@H](CCCNC(=N)N)C(=O)Nc1ccc2c(CC(N)=O)cc(=O)oc2c1) | –
0.2 | 825 | 2.8 | 41.2 | 28.4 | Ac-[Tic][Dab][Phe(3,4-F2)]R-{ACC} (SMILES CC(=O)N1Cc2ccccc2C[C@H]1C(=O)N[C@@H](CCN)C(=O)N[C@@H](Cc1ccc(F)c(F)c1)C(=O)N[C@@H](CCCNC(=N)N)C(=O)Nc1ccc2c(CC(N)=O)cc(=O)oc2c1) | –
0.0 | 134 | 10.3 | 3.1 | 36.1 | Ac-[Tic][dOrn][Phe(2-Cl)]K-{ACC} (SMILES CC(=O)N1Cc2ccccc2C[C@H]1C(=O)N[C@H](CCCN)C(=O)N[C@@H](Cc1ccccc1Cl)C(=O)N[C@@H](CCCCN)C(=O)Nc1ccc2c(CC(N)=O)cc(=O)oc2c1) [Tic-DArg-Phe(2-Cl)-Lys] | –
– | – | – | – | – | BODIPYFL-6-ahx-Ala-Arg-Leu-Arg-AOMK [MP-pc2, BDPFL-6-ahx-Ala-Arg-Leu-Arg-AOMK, BODIPY-FL-labeled pan-cathepsin probe] | kobs/I Cath-S [11]: 18,500 M^-1s^-1; kobs/I Cath-V [12]: 9,800 M^-1s^-1; kobs/I Cath-L [13]: 8,200 M^-1s^-1; kobs/I Cath-B [14]: 23,200 M^-1s^-1; kobs/I Cath-K [15]: 350 M⁻¹ s⁻¹
– | – | – | – | – | Cy3-6-ahx-Ala-Arg-Leu-Arg-AOMK [MP-pc3, Cy3-labeled pan-cathepsin probe] | kobs/I Cath-S [11]: 69,000 M^-1s^-1; kobs/I Cath-V [12]: 6,700 M^-1s^-1; kobs/I Cath-L [13]: 16,900 M^-1s^-1; kobs/I Cath-B [14]: 75,400 M^-1s^-1; kobs/I Cath-K [15]: 1,350 M^-1s^-1
– | – | – | – | – | biotin-6-ahx-His-DThr-Phe(F5)-Arg-AOMK [MP-cL1] | kobs/I Cath-S [11]: < 100 M⁻¹ s⁻¹; kobs/I Cath-V [12]: 780 M⁻¹ s⁻¹; kobs/I Cath-L [13]: 26,600 M^-1s^-1; kobs/I Cath-B [14]: 1,900 M^-1s^-1; kobs/I Cath-K [15]: < 100 M⁻¹ s⁻¹
– | – | – | – | – | biotin-6-ahx-His-DThr-Phe(F5)-Lys-AOMK [MP-cL2] | kobs/I Cath-S [11]: < 100 M⁻¹ s⁻¹; kobs/I Cath-V [12]: 360 M⁻¹ s⁻¹; kobs/I Cath-L [13]: 10,500 M^-1s^-1; kobs/I Cath-B [14]: 1,250 M^-1s^-1; kobs/I Cath-K [15]: < 100 M⁻¹ s⁻¹

Substance | Relative substrate activity (rate of hydrolysis), cathepsin K [1] [RFU/s] | Relative substrate activity (rate of hydrolysis), cathepsin L [2] [RFU/s] | Relative substrate activity (rate of hydrolysis), cathepsin S [3] [RFU/s] | Relative substrate activity (rate of hydrolysis), cathepsin B [5] [RFU/s] | Relative substrate activity (rate of hydrolysis), cathepsin V [6] [RFU/s] | other results
Ac-HRFR-{ACC} (SMILES CC(=O)N[C@@H](Cc1c[nH]cn1)C(=O)N[C@@H](CCCNC(=N)N)C(=O)N[C@@H](Cc1ccccc1)C(=O)N[C@@H](CCCNC(=N)N)C(=O)Nc1ccc2c(CC(N)=O)cc(=O)oc2c1) [reference compound] | 24.5 | 875 | 40.3 | 272 | 224 | kcat/KM ([4]; Fig. 4B, ACC substrates, 100 mM sodium acetate, 100 mM NaCl, 10 mM DTT, 1 mM EDTA, average of at least three): 13,050,000 M^-1s^-1
Ac-H[dV][Phe(F5)]R-{ACC} (SMILES CC(=O)N[C@@H](Cc1c[nH]cn1)C(=O)N[C@@H](C(=O)N[C@@H](Cc1c(F)c(F)c(F)c(F)c1F)C(=O)N[C@@H](CCCNC(=N)N)C(=O)Nc1ccc2c(CC(N)=O)cc(=O)oc2c1)C(C)C) | 1.1 | 706 | 0.0 | 0.7 | 4.4 | kcat/KM Cath-B [7]: 252 M⁻¹ s⁻¹; kcat/KM Cath-V [8]: 539 M⁻¹ s⁻¹; kcat/KM Cath-L ([4]; Fig. 5B, triplicate): 747,400 M^-1s^-1; kcat/KM Cath-S [9]: < 10 M⁻¹ s⁻¹; kcat/KM Cath-K [10]: < 10 M⁻¹ s⁻¹
Ac-[Tic][Orn][Phe(4-F)]L-{ACC} (SMILES CC(=O)N1Cc2ccccc2C[C@H]1C(=O)N[C@@H](CCCN)C(=O)N[C@@H](Cc1ccc(F)cc1)C(=O)N[C@@H](CC(C)C)C(=O)Nc1ccc2c(CC(N)=O)cc(=O)oc2c1) | 0.0 | 684 | 4.7 | 15.0 | 31.7 | –
